Patent publication US20100292306A1, “Compositions And Methods For The Treatment Of Muscular Dystrophy” (priority 2005, published 2010)
“Also recorded” adds a separate entry of the source.

What was measured:
[1] = system: nuclear NF-κB activation; details: long term treatment; Durham et al. (2006); cited from earlier work
[2] = system: nondystrophic and mdx TS muscle fibers; test: Effect of Gd^3+ on resting membrane potential of isolated TS muscle preparations; type: cell-based, mice
Protocol: The effect of the Ca^2+ channel blocker, Gd^3+, on the resting membrane potential was examined in both nondystrophic and mdx TS muscle preparations. Gd^3+ blocks both nonselective cation channels and more Ca^2+-selective leak channels (Franco et al., 1991 and Yang and Sachs, 1989) and, at concentrations of 20-100 μM, eliminates fluorometric determinations of resting Ca^2+ influx in a variety of cells (Broad et al., 1999, Carlson and Geisbuhler, 2003, Cox et al., 2002 and Samadi et al., 2005). […]
The potential effect of Gd^3+ on resting potential was determined in several nondystrophic (5-17 months) and mdx (5-11.5 months) TS preparations by first recording from several cells in normal HEPES Ringer solution, and then adding 100 μM GdCl3 to the solution while recording continuously from a single fiber. After removing the electrode from the fiber, the resting potential of several additional fibers were determined in the presence of the lanthanide. The average resting potential in nondystrophic fibers bathed in normal HEPES Ringer was −50.1±1.4 (SE) mV, a value lower than that recorded in this laboratory from nondystrophic diaphragm (−63±1.3 mV, N=98 fibers, 5 weeks to 2 years of age; Carlson and Roshek, 2001).

[3] = system: mdx TS muscle fibers; test: Intracellular recording of resting membrane potential in TS muscle fibers after chronic treatment; type: in vivo, mdx mice; details: sulfasalazine 100 mg/kg ip daily 68 days, vs vehicle littermate
[4] = system: nuclear NFκB; test: EMSA of nuclear NFκB binding in costal diaphragm nuclear extracts after single injection; type: in vivo, mdx mice; details: sulfasalazine 100 mg/kg ip single injection, 3 hours, mdx 3 to 3.5 months
Protocol: MDX mice aged 3 to 3.5 months were injected with either sulfasalazine (SS; 100 mg/kg, ip) or vehicle (HEPES Ringer; in mM: 147.5 NaCl, 5 KCl, 2 CaCl2, 11 glucose, 5 HEPES, pH 7.35) and euthanized at 3 hours post-injection. The costal diaphragms were removed and flash frozen before beginning the extract procedure. Nuclear and cytosolic extracts were obtained using a procedure slightly modified from that described in Carlson et al. (2005) and Kumar and Boriek (2003). […] Protein determinations were determined by the method of Lowry using bovine serum albumin standards (20 μg nuclear protein was added to each lane).
; in mM: 147.5 NaCl, 5 KCl, 2 CaCl2, 11 glucose, 5 HEPES, pH 7.35; 0.1% DMSO) and euthanized at 3 hours post-injection. […] Protein determinations were determined by the method of Lowry using bovine serum albumin standards (20 μg nuclear protein was added to each lane).

[5] = system: TNFα; test: ELISA of TNFα in cytosolic muscle extracts after single sulfasalazine injection; type: in vivo, mdx mice; details: mdx costal diaphragm; SS 100 mg/kg ip single injection, 3 hours
Text: (§1) Each diaphragm was divided into costal and crural regions which were processed and analyzed separately. After determining protein concentrations for each of the cytosolic and nuclear extracts (Lowry assay), samples of each extract were used to obtain standard ELISA determinations of mouse TNFα, IL-6, and IL-1β using standard procedures (Assay Designs, Inc.). These particular NFκB products were chosen because of their role in the inflammatory reaction and previously published results indicating the presence of these cytokines in nondystrophic skeletal muscle homogenates (Molina et al., Neuroimmunomodulation, 4, 28-36, 1997; Jonsdottir et al., J. of Physiol. (Lond.), 528.1, 157-163, 2000; Lang et al., Shock, 19(6), 538-546, 2003).
(§2) MDX mice aged 3 to 3.5 months were injected with either SS (100 mg/kg) or vehicle (HEPES Ringer; in mM: 147.5 NaCl, 5 KCl, 2 CaCl2, 11 glucose, 5 HEPES, pH 7.35) and euthanized at 3 hours post-injection. The costal and crural diaphragms and the gastrocnemius muscle were then immediately removed and flash frozen before beginning the procedure to obtain nuclear and cytosolic extracts as described in Example 10. ELISA determinations of TNFα, Il1-β, and IL6 were determined as described in Example 9.

[6] = system: IL1-β; test: ELISA of IL1-β in cytosolic muscle extracts after single sulfasalazine injection; type: in vivo, mdx mice; details: SS 100 mg/kg ip single injection, 3 hours
Text: as §1, §2

[7] = system: IL6; test: ELISA of IL6 in cytosolic muscle extracts after single sulfasalazine injection; type: in vivo, mdx mice; details: costal and crural diaphragms; SS 100 mg/kg ip single injection, 3 hours
Text: as §1, §2

[8] = Observation of viability, side effects and body weight during treatment

For `COc1cc(/C=C/C(=O)CC(=O)/C=C/c2ccc(O)c(OC)c2)ccc1O` [curcumin, diferuloylmethane], the “nuclear NF-κB activation in mdx costal diaphragm” value [1] is given as “did not reduce”.

In the case of `[Cl][Gd]([Cl])[Cl]` [Gd^3+, GdCl3], the “change in resting potential, total sample of fibers” value ([2]; 100 μM GdCl3, failed to reach statistical significance in nondystrophic or mdx) is reported as “slight hyperpolarization” and the “effect on resting potential when added during recording” value ([2]; 100 μM GdCl3 added while recording from nondystrophic or mdx fibers) is reported as “No effect”.

With `O=C(O)c1cc(/N=N/c2ccc(S(=O)(=O)Nc3ccccn3)cc2)ccc1O` [sulfasalazine, Sulfasalazine] the “resting potential of TS muscle fibers” value [3] was “significantly improves”, the “resting potential of TS muscle fibers” value ([3]; listed as SS) was “significantly improved” and the “nuclear NFκB binding to consensus sequence / nuclear NF-kappaB activation” value [4] was “may reduce”. For the same molecule, the “nuclear NFκB binding to consensus sequence / nuclear NF-kappaB activation” value ([4]; listed as SS) was “reduction”, the “expression of TNFα in cytosolic extracts” value [5] was “reduced” and the “expression of IL1-β in cytosolic extracts” value [6] was “did not reduce; also recorded: not influenced”. For the same molecule, the “expression of IL6 in cytosolic extracts” value [7] was “did reduce; also recorded: reduced”, the body weight ([8]; SS 100 mg/kg ip daily 68 days) was “maintained their body weight” and the “side-effects of chronic treatment schedule” value ([8]; SS 100 mg/kg ip daily 68 days) was “no obvious side-effects”. For the same molecule, the “side effects after injection” value ([8]; SS 100 mg/kg ip, aside from 5 to 10 sec restlessness) was “no obvious side effects”.
